# In ChEMBL document CHEMBL1201862, “PubChem BioAssay data set” (2004):
# Values joined by “and” are separate entries in the source; they are usually repeats but may differ in a detail not shown here. Equal entries are not always repeated. Active and inactive are the calls of the source.
# Tests used:
# [1] = biological target: T1, Replicative DNA helicase DnaB (Mycobacterium tuberculosis, UniProt P9WMR3); assay: DnaB intein splicing inhibitors, dose response, biochemical, cell-free fluorescence (AID 449749); type: functional
# T1 sequence (P9WMR3 whole entry): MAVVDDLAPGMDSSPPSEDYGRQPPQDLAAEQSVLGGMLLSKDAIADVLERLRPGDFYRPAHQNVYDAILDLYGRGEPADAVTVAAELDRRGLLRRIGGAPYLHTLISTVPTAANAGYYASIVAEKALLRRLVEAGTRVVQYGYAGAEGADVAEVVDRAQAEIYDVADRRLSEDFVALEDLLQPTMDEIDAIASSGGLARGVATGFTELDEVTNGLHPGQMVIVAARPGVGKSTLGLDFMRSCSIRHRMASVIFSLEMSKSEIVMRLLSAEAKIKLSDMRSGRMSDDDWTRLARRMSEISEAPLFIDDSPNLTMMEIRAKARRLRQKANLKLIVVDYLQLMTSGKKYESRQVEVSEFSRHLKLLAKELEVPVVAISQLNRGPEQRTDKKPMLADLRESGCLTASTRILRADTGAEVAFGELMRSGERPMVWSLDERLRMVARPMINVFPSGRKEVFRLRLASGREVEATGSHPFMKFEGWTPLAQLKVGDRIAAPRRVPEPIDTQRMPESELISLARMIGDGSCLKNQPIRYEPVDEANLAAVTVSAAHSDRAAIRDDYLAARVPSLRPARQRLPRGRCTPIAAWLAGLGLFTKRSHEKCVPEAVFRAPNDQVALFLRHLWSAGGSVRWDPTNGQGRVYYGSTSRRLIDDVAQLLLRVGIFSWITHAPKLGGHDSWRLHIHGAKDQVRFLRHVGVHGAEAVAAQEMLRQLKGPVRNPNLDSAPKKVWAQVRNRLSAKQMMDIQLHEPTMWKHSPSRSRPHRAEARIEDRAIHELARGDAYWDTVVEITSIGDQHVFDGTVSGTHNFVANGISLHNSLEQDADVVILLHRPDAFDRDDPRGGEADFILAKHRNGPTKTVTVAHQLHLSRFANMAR
# Beta Lactamase = Beta Lactamase (Pseudomonas aeruginosa, UniProt Q932Y6); assay: BLA reporter interference, concentration series – BLA reporter cells, FRET fluorescence, artefact control for TLR9-MyD88 binding inhibitor project, dose response (AID 588341); type: cell-based;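 also: cell based assay in CHO-K1 cells stably expressing beta-lactamase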
# Fatty acid synthase [2] = biological target: T2, Fatty acid synthase (Homo sapiens, UniProt P49327); assay: inhibition of human FAS-TE enzyme activity – biochemical, kinetic fluorescence intensity, dose response (AID 624326); type: functional;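 also: rate of fluorescence rise from hydrolysis of a fluorogenic O-methyl fluorescein ester substrate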
# [3] = reduction of Shn3 3'UTR-driven luciferase in osteoblasts – cell-based, Clone20 osteoblasts, firefly luciferase, cherry-picked, dose response (AID 624132); type: functional;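 also: firefly luciferase luminescence from reporter carrying the Shn3 3'UTR in osteoblasts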
# Protein RecA = biological target: T3, Protein RecA (Mycobacterium tuberculosis, UniProt P9WHJ3); assay: Fluorescence Cell-Free Homogeneous Dose Retest to Identify Inhibitors of RecA-Intein Splicing Activity. [Related pubchem assays (depositor defined):AID2097, AID2223, AID489010, AID492950]; type: functional
# T3 sequence (P9WHJ3 whole entry): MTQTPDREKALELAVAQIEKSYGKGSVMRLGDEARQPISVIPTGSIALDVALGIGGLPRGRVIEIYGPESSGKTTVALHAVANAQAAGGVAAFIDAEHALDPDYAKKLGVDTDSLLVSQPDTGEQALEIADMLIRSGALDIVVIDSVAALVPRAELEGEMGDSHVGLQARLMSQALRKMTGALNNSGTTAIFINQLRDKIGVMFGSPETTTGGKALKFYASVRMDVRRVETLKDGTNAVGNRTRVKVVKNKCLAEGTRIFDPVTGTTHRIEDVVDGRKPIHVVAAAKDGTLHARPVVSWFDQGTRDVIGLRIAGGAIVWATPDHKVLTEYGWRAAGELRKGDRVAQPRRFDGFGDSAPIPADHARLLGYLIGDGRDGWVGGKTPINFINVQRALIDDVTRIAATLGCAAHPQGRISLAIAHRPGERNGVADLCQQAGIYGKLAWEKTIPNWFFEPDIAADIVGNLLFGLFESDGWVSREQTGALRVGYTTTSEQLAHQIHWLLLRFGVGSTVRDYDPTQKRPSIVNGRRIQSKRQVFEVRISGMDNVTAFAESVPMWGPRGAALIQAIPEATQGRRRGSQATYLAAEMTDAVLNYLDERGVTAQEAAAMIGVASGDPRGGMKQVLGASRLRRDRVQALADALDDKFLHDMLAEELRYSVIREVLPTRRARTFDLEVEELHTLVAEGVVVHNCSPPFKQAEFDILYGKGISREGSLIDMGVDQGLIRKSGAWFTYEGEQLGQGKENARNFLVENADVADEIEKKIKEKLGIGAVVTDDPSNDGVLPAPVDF
# Fatty acid synthase [4] = biological target: T2, Fatty acid synthase; assay: inhibition of human FAS-TE enzyme activity – biochemical, endpoint fluorescence intensity, uHTS hits, dose response (AID 624327); type: functional;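 also: fluorescence from hydrolysis of an O-methyl fluorescein acyl ester substrate by the enzyme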
# [5] = non-specific 3'UTR reporter inhibition in Clone20-Shn3RL – cell-based, Renilla luciferase, cherry-picked, counter-screen for Shn3 inhibitor project, dose response (AID 624133); type: functional
# [6] = loss of viability in HepG2 cells – cell-based, CellTiter-Glo, cherry-picked, cytotoxicity control for Shn3 inhibitor project, dose response (AID 624134); type: functional
# CHO = CHO cell viability loss, potency – luminescence, cytotoxicity control for TLR9-MyD88 binding inhibitor project, dose response (AID 588339); type: functional, cell-based, hamster; conditions: Cricetulus griseus;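 also: CHO cells stably coexpressing TLR9 and MyD88 fusions from primary screen; compound exposure lasted 48 hours before viability readout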
# [7] = Trypanosoma cruzi growth suppression in host cells – NIH3T3 host cells, beta-gal luminescence, confirmation (AID 2044); type: functional, cell-based;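 also: intracellular parasites grown in NIH/3T3 mouse fibroblasts as host cells; luminescent beta-galactosidase reporter signal from transgenic T. cruzi replicating inside host cells; inhibitors lower the luminescence signal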
# [8] = blockers of HIV-1 envelope-mediated cell-cell fusion – cherry-pick, dose response (AID 652057); type: functional, cell-based
# X-box-binding protein 1 = biological target: T4, X-box-binding protein 1 (Homo sapiens, UniProt P17861); type: functional, Cricetulus griseus;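 also: confirmatory dose-response counter-screen serving a CHOP assay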
# T4 sequence (P17861 whole entry): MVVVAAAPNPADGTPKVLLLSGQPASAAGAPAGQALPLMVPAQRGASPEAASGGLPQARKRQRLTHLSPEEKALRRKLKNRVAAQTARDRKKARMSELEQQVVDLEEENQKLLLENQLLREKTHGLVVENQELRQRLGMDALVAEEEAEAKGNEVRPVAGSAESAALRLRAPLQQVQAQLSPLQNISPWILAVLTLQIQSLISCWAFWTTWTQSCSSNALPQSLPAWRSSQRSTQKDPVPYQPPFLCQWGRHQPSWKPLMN
# A-375 = assay: proliferation inhibition in MITF-low A375 cells – cell-based, cherry-pick samples, set 2, counter-screen for MITF modulator project, dose response (AID 540335); type: functional; conditions: Homo sapiens
# [9] = HIV-1 AD8 envelope cell-cell fusion blockers – cherry-pick, dose response (AID 652062); type: functional, cell-based;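 also: luciferase signal from cell-cell fusion driven by HIV-1 clade B AD8 Env; potency is for inhibitors of fusion seen as a drop in luminescence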
# [10] = fluconazole-exposed Candida albicans growth modulators – fluorescence, retest, confirmation (AID 2467); type: functional, cell-based
# [11] = blockers of HIV-1 ZM109 envelope-driven cell-cell fusion – HeLa effector, CEM target cells, luciferase, cherry-pick, dose response (AID 652058); type: functional, cell-based;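 also: luciferase signal from HIV-1 Env mediated cell-cell fusion of effector and target cells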
# [12] = NIH-3T3 fibroblast cytotoxicity, dose response, cytotoxicity control, cell-based, fluorescence, Alamar Blue, secondary assay (AID 2327); type: functional;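 also: NIH-3T3 mouse fibroblasts cultured with fluconazole at 8 µg/mL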
# [13] = biological target: T5, Microphthalmia-associated transcription factor (Homo sapiens, UniProt O75030); assay: reducers of TRPM1 reporter luminescence, concentration series – cell-based, SK-MEL-5, cherry-picked, set 3, MITF inhibitor project, dose response (AID 493073); type: functional;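 also: SK-MEL-5 melanoma cells with luciferase driven by the MITF target TRPM1 promoter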
# T5 sequence (O75030 whole entry): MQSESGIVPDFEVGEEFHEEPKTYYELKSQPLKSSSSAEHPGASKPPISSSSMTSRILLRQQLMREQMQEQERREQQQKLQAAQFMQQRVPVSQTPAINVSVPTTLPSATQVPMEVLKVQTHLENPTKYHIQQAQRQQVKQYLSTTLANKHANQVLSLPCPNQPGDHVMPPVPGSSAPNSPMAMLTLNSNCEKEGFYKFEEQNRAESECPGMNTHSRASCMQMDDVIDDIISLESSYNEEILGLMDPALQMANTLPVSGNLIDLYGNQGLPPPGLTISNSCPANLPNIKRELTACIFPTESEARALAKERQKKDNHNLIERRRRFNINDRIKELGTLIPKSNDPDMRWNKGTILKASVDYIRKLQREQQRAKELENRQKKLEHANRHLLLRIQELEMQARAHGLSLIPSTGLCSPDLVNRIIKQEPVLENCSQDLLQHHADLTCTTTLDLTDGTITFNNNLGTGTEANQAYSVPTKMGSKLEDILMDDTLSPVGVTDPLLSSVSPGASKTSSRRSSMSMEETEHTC
# [14] = decrease of insulin promoter-GFP reporter – imaging, high-content screening, mouse beta cells (AID 1628); type: functional; conditions: MIN6
# [15] = viability loss in CEM21 cells – cell-based, CellTiter-Glo luminescence, cherry-picked, cytotoxicity control for viral fusion inhibitor project, dose response (AID 652042); type: functional;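 also: potency for signal decrease meaning cytotoxicity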
# [16] = biological target: G-protein coupled receptor 55 (Homo sapiens, UniProt Q9Y2T6); assay: selective activators of receptor GPR55 – imaging, U2OS cells, beta-arrestin-GFP redistribution, primary screen (AID 1961); type: functional
# INS1 = assay: INS-1E survival protection against cytokine death – cell-based, luminescence, retest, dose response (AID 449756); type: functional; conditions: Rattus norvegicus;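 also: cell death triggered by IL-1 beta plus TNF-alpha plus IFN-gamma mixture; protective hits raise ATP signal compared with cytokine alone wells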
# [17] = off-target signal loss in HeLa-CEM21 co-culture – HeLa F-luc CTL cells, cherry-picked, counter-screen for HIV-1 Env fusion inhibitor project, dose response (AID 652040); type: functional, cell-based;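 also: potency for signal decrease marking cytotoxic or nonspecific inhibition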
# [18] = biological target: T6, Apoptotic protease-activating factor 1 (Homo sapiens, UniProt O14727); type: functional
# T6 sequence (O14727 whole entry): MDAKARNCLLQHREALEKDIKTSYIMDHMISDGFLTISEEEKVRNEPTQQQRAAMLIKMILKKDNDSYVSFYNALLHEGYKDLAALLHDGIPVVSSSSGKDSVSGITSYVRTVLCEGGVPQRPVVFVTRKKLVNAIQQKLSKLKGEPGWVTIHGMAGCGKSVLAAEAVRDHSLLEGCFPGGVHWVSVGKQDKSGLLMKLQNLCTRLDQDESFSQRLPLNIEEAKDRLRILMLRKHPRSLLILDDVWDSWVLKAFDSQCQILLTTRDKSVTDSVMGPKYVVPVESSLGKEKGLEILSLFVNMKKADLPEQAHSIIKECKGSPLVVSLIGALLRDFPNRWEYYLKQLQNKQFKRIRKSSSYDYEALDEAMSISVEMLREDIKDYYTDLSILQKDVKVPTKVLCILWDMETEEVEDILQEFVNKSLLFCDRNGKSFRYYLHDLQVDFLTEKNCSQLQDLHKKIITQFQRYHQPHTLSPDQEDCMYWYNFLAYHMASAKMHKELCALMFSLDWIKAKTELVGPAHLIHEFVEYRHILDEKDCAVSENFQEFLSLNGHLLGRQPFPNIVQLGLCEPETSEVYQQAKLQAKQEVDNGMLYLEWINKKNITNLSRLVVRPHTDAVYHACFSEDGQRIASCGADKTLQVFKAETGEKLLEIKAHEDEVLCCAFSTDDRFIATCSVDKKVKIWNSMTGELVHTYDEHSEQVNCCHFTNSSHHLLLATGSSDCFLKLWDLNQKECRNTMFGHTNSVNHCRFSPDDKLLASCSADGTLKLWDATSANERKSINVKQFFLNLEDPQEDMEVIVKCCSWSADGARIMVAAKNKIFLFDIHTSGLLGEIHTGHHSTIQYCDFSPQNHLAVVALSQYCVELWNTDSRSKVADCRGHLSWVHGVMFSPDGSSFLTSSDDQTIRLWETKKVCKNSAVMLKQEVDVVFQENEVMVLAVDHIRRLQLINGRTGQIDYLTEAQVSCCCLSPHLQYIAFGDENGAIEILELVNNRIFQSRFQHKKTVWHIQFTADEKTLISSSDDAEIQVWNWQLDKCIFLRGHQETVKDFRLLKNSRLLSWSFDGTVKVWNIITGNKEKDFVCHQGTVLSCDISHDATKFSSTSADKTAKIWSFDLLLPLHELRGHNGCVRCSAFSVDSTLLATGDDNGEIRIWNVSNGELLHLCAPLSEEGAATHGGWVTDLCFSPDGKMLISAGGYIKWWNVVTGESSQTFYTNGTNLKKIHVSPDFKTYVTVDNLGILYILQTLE
# [19] = MIN6 cell viability loss – mouse insulinoma, cytotoxicity control, dose response (AID 2122); type: functional;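 also: confirmatory high-throughput counterscreen run to flag cytotoxic compounds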
# [20] = biological target: T7, Ubiquitin-conjugating enzyme E2 N (Homo sapiens, UniProt P61088); type: functional;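 also: Dose-response confirmation in a TR-FRET assay detecting UBC13-driven polyubiquitin chain formation, inhibition measured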
# T7 sequence (P61088 whole entry): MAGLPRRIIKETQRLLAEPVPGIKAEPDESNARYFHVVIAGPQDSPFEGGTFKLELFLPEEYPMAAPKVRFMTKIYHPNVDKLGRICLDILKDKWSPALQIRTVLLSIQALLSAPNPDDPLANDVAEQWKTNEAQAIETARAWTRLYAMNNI
# T2 sequence (P49327 whole entry): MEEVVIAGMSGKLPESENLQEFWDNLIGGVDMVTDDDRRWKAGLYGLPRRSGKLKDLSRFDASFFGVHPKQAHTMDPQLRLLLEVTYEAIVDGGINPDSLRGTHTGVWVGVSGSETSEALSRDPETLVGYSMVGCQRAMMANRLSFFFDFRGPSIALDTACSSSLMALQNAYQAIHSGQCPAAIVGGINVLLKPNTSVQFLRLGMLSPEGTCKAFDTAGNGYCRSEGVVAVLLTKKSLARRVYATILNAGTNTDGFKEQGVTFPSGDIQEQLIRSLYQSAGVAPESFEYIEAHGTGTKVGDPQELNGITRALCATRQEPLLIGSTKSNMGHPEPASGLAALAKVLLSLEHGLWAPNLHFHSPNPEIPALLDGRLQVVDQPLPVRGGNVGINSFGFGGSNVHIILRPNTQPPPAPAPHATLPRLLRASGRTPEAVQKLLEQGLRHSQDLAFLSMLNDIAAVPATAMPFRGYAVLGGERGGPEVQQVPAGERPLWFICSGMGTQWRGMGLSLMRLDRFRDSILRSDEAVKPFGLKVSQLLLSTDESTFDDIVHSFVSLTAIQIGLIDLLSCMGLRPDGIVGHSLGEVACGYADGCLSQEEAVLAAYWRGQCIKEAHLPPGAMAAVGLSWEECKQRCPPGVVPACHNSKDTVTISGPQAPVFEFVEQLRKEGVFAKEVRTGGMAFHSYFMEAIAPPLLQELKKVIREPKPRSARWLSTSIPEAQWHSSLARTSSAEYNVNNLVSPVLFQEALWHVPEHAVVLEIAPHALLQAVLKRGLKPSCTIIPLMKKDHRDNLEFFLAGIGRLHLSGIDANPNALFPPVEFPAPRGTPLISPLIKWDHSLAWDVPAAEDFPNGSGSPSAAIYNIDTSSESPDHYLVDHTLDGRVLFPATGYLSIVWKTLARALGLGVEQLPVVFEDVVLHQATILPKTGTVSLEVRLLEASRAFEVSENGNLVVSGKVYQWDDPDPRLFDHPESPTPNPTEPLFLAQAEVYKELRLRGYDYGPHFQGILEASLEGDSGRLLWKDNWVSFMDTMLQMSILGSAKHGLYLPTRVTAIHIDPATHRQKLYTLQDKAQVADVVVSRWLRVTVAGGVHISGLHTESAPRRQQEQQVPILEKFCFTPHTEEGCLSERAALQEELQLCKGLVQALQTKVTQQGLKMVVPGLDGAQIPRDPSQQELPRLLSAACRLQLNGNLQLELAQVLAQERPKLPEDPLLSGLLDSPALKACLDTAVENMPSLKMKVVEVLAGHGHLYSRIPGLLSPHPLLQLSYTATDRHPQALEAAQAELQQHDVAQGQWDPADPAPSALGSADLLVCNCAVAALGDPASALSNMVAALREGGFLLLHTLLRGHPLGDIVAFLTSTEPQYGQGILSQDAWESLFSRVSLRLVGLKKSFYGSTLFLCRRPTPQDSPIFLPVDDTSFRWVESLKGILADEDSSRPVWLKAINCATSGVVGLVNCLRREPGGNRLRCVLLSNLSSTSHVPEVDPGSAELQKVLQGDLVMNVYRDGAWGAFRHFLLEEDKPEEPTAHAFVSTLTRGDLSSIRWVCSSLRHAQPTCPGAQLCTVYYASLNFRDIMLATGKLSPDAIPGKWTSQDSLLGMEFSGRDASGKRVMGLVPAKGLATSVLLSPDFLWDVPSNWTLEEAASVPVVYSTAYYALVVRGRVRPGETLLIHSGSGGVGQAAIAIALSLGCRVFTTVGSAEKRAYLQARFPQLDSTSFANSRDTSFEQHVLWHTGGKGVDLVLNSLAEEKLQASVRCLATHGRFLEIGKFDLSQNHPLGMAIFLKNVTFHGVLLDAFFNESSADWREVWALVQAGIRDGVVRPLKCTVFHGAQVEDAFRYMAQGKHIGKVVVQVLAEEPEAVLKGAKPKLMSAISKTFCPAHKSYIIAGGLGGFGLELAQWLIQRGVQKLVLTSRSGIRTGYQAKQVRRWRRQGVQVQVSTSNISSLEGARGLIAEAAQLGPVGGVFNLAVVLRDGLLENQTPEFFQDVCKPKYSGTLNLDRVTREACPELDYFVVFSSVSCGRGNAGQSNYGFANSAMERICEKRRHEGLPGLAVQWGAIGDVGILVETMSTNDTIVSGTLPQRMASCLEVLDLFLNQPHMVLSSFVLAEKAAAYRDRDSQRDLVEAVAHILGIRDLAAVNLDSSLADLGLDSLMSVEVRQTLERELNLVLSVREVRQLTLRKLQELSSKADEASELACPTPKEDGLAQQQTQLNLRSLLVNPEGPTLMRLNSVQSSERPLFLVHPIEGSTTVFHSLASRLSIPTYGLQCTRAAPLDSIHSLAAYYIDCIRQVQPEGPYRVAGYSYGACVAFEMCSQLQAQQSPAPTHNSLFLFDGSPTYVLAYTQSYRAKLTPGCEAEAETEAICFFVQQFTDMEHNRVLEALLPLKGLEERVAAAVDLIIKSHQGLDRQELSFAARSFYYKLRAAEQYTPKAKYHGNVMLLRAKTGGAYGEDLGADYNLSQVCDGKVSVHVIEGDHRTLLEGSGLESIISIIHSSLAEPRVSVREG
# Sequence of Beta Lactamase (Q932Y6 whole entry): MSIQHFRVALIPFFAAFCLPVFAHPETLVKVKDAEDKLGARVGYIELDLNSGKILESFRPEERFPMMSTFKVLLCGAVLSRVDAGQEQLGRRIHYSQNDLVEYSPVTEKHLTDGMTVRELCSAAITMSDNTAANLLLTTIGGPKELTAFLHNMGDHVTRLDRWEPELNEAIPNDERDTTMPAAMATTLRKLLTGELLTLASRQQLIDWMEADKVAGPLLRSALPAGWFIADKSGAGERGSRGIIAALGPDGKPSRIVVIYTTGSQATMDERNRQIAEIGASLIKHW
# Sequence of G-protein coupled receptor 55 (Q9Y2T6 whole entry): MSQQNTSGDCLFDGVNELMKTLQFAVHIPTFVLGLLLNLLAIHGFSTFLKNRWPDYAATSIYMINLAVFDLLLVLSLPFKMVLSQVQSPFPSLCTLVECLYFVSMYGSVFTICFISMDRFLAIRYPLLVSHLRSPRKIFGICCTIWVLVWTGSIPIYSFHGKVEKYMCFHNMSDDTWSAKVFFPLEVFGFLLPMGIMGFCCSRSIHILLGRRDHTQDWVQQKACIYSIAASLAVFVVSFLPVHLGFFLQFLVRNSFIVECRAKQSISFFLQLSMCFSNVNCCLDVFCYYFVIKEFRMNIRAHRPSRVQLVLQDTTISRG
smiles,measurement,setting,value
CCCC(=O)OCCNc1cc(Sc2nc3ccccc3[nH]2)c2nonc2c1[N+](=O)[O-],AC50,[1],0.855 µM (active)
same,IC50,Beta Lactamase,10.9 µM (inactive)
same,IC50,Fatty acid synthase [2],1.34 µM (active)
same,AC50,[3],6.63 µM (active)
same,EC50,Protein RecA,0.657 µM (active)
same,IC50,Fatty acid synthase [4],2.2 µM (active)
same,AC50,[5],8.96 µM (active)
same,AC50,[6],24.2 µM (active)
same,IC50,CHO,4.59 µM (active)
Cc1ccccc1OCc1n(CC(=O)OC2CC(C)CCC2C(C)C)c2ccccc2[n+]1C.[Cl-] (stereo unspecified),EC50,[7],684 nM (active) and 429 nM (active)
same,AC50,[8],6.17 µM (active)
same,Absolute IC50 (XBP1),X-box-binding protein 1,10 µM
same,AC50,A-375,19 µM (active)
same,AC50,[9],7 µM (active)
same,EC50,[10],0.693 µM (active)
same,AC50,[11],8.94 µM (active)
same,EC50,[12],> 160 µM (inactive)
same,AC50,[13],7.51 µM (active)
same,IC50,[14],1.52 µM (active)
same,AC50,[15],4.93 µM (active)
same,EC50,[16],> 32 µM (inactive)
same,AC50,INS1,3.39 µM (active)
same,AC50,[17],9.17 µM (active)
same,IC50,[18],29.5 µM (active)
same,IC50,[19],1.95 µM (active)
same,IC50,[20],> 20 µM (inactive)
